# Measured values published in US20100197625A1, “SYNTHETIC LIPOPHILIC INOSITOL GLYCANS FOR TREATMENT OF CANCER AND GLUCOSE-METABOLISM DISORDERS” (priority 2006, published 2010).
# Tests used:
# AGS = assay: Cell proliferation / cell death assay, AGS; type: cell-based, human; conditions: 10-100 μM
# Protocol: (§1) Human pancreatic cancer cell lines (Panc-1, MiaPaca2, BXPC3, Aspc 1), human hepatoma cell line (HuH7), human gastric cancer cell lines (AGS, MKN45), human colon cancer cell line (CoCM-1), human mammary cancer cell line (MCF-7), human neuroblastoma (SH-SY5Y), human prostate cancer cells (PC3), and murine Ehrlich ascites cancer cells and mouse 3T3-L1 fibroblasts were obtained from American Type Culture Collection (Rockville, Md., USA). The cancer cells were cultured in RPMI 1640 containing 10% fetal calf serum. Cultures were maintained at 37° C. in a humidified atmosphere of 5% CO2.
# (§2) Cell proliferation assays were performed with the CellTiter 96 AQueous One Solution Cell Proliferation Assay kit according to the manufacturer's instructions (Promega, Madison, Wis., USA). Briefly, 5×10^3 cells/well in medium were placed onto 96-well plates. IGs were added to cellular cultures at final concentrations of 0, 1, 10, and 100 μM. Cultures were incubated for 3 days or 7 days and then added to 20 μL/well of CellTiter 96 AQueous One Solution Reagent, which contains a tetrazolium compound, 3-(4,5-dimethylthiazol-2-yl)-5-(3-carboxymethoxyphenyl)-2-(4-sulfophenyl)-2H-tetrazolium, an inner salt; MTS was added to the culture medium. After incubating the plate for 1 h in a CO2 incubator, absorbance at 490 nm was recorded with a 96-well plate reader.
# ob/ob obese mice = assay: IG-1 treatment for 28 days, ob/ob obese mice; type: in vivo; conditions: IG1 1 mg, Mean ± SD (n = 6)
# Protocol: (§3) Blood glucose was assayed with Glucose Ace (Sanwa Kagaku Kenkyusho, Nagoya, Japan). Serum insulin and leptin were determined with ELISA kits (Morinaga Institute of Biological Science, Yokohama, Japan). Serum adiponectin and tumor necrosis factor-α (TNF-α) concentrations were measured with an ELISA kit (Ohtsuka Pharmaceutical, Tokyo, Japan) and a TNF-α assay kit (Amersham Biosciences, Uppsala, Sweden), respectively. Serum total cholesterol, triglyceride, and FFA concentrations were determined with a Cholescolor liquid, Lipidos liquid (TOYOBO, Osaka, Japan), and NEFA C (Wako Pure Chemical, Osaka, Japan) kits, respectively.
# [1] = tested on: human umbilical vein endothelial cells (HUVEC); assay: Cell death of human umbilical vein endothelial cells; type: cell-based; conditions: in 1 hour
# [2] = tested on: C57B/6 mice on high-fat diets; assay: IG1 treatment for 28 days, mice on high-fat diets; type: in vivo; conditions: data not shown
# Protocol: (§4) Male C57BL/6 mice were housed individually and given free access to a standard diet (65% carbohydrate, 4% fat, and 24% protein) or a high-fat diet (Quick Fat; 60.2% carbohydrate, 15.3% fat, and 24.5% protein; Clea Japan, Tokyo, Japan), starting at 5 weeks of age, for 5 weeks. Db/db mice also were housed individually and given free access to a standard diet. C57BL/6 mice at 5 weeks of age, were received a single dose of 75 μg/g body weight streptozotoxin (STZ). 7 days after injections, the mice, whose fasting plasma glucose concentrations were over 400 mg/dl, were used as STZ-diabetic mice. Animal study protocols were in accordance with the institutional guidelines for animal experiments at Tohoku University.
# as §3
# [3] = tested on: C57B/6 mice on high-fat diets; assay: Intraperitoneal IG1 for 7 days, mice on high-fat diets; type: in vivo
# Protocol: as §4
# Frozen livers were homogenized, and triglycerides were extracted with CHCl3:CH3OH (2:1, vol:vol), dried and resuspended in 2-propanol (17). Triglyceride contents were measured using Lipidos liquid (TOYOBO, Osaka, Japan). Glycogen was isolated from 30-50 mg of frozen liver by dissolving the tissue in 30% potassium hydroxide saturated with Na2SO4 for 30 min at 100° C., followed by ethanol precipitation. Glycogen content was determined by the phenol-sulfuric acid spectrophotometric method at 490 nm (18) and expressed as micrograms of glycogen per milligram of liver.
# as §3
# Glucose tolerance was assessed with intraperitoneal glucose tolerance. Glucose tolerance tests were performed on fasted (16 h) mice. Mice were given intraperitoneal glucose (2 g/kg body wt), and blood glucose was assayed immediately before and at 15, 30, 60, and 120 min after administration.
# Aspc1 = assay: Cell proliferation / cell death assay, Aspc1; type: cell-based, human; conditions: Aspc1, 10-100 μM
# Protocol: as §1, §2
# 3T3-L1 adipocytes = assay: Glycogen synthesis in 3T3-L1 adipocytes; type: cell-based, mouse; conditions: 10-1000 μM
# Protocol: 3T3-L1 fibroblasts were maintained in Dulbecco's modified Eagle's medium (DMEM) with 25 mM glucose plus 10% fetal bovine serum (FBS). Following 2 days at confluence, differentiation was initiated by the addition of DMEM containing 10% FBS, 167 nM insulin, […] dexamethasone, and 0.5 mM isobutylmethylxanthine. Three days later, the medium was replaced with DMEM plus 10% FBS and 167 nM insulin. After 2 more days, the medium was switched to DMEM plus 10% fetal bovine serum. Adipocytes were used 6-14 days after completion of the differentiation protocol, when >90% of the cells expressed the adipocyte phenotype. Prior to experiments, cells were washed two times with DMEM medium containing 5 mM glucose, 0.2% bovine serum albumin, 25 mM Hepes (pH 7.4), 100 units/ml penicillin, 100 units/ml streptomycin and 0.29 mg/ml glutamine, and were incubated in the same medium for 2 h. Glycogen and lipid synthesis were measured in 24-well dishes. […] The lipids were then extracted overnight with 5 ml of Betafluor (National Diagnostics), and glucose incorporation into lipid was measured by scintillation counting. 400 μl of the cell suspension was added to 600 μl of 50% KOH, and glycogen was precipitated and radioactivity was counted by a liquid scintillation counter
# MKN45 = assay: Cell proliferation / cell death assay, MKN45; type: cell-based, human; conditions: MKN45, 10-100 μM
# Protocol: as §1, §2
# [4] = tested on: human colon cancer cells (CoCM-1); assay: Cell proliferation / cell death assay, CoCM-1; type: cell-based; conditions: CoCM-1, 10-100 μM
# Protocol: as §1, §2
# [5] = high fat-diets, IG1 1 mg, 7 days, Mean ± SD (n = 6)
smiles,measurement,setting,value
"CCCCCCCCCCCCCCCC(=O)O[C@@H]1C(O)C(O)[C@H](O)C(O[C@H]2OC(CO)[C@@H](O)[C@H](O)C2N)C1O (stereo in doubt) [IG1, 2-Amino-2-deoxy-α-D-glucopyranosyl-(1→6)-2-palmitoyl-D-myo-inositol]",rapid cancer cell death,AGS,rapid cancer cell death was demonstrated
same,Adiponectin,ob/ob obese mice,47.6 ± 4.6 µg/mL
same,Body weight,ob/ob obese mice,40.1 ± 3.2 g
same,Fasting plasma glucose,ob/ob obese mice,66.1 ± 8.3 mg/dL
same,Fasting plasma insulin,ob/ob obese mice,16.3 ± 4.3 ng/mL
same,Food intake,ob/ob obese mice,4.53 ± 0.74 g/day
same,NEFA,ob/ob obese mice,0.88 ± 0.34 mEq/l
same,TNF-1α,ob/ob obese mice,34.7 ± 6.7 pg/mL
same,Total cholesterol,ob/ob obese mice,172.4 ± 13.6 mg/dL
same,Triglyceride,ob/ob obese mice,31.2 ± 5.3 mg/dL
same,cell death of HUVEC,[1],induces rapid cell death
same,"daily food intakes, body weight, and fasting plasma concentrations of insulin, triglyceride, free fatty acids and leptin",[2],significantly reduces
same,hepatic and muscular glycogen contents,"[3]; after 7 days, data not shown",increases hepatic and muscular glycogen contents
same,hepatic triglyceride contents,"[3]; after 7 days, data not shown",decreases hepatic triglyceride contents
same,Adiponectin,[3]; [5],50.4 ± 4.8 µg/mL
same,Body weight,[3]; [5],32.1 ± 1.8 g
same,Fasting plasma glucose,[3]; [5],62.8 ± 6.3 mg/dL
same,Fasting plasma insulin,[3]; [5],0.44 ± 0.19 ng/mL
same,Food intake,[3]; [5],2.93 ± 0.37 g/day
same,Leptin,[3]; [5],17.3 ± 5.4 ng/mL
same,NEFA,[3]; [5],0.78 ± 0.18 mEq/l
same,TNF-1α,[3]; [5],33.7 ± 4.4 pg/mL
same,Total cholesterol,[3]; [5],177.9 ± 24.6 mg/dL
same,Triglyceride,[3]; [5],26.2 ± 4.4 mg/dL
same,glucose tolerance,"[3]; intraperitoneal, 1 mg per mice, for every 7 days",significantly improved glucose tolerance
same,rapid cancer cell death,Aspc1,rapid cancer cell death was demonstrated
same,glycogen synthesis,3T3-L1 adipocytes,stimulates
same,rapid cancer cell death,MKN45,rapid cancer cell death was demonstrated
same,rapid cancer cell death,[4],rapid cancer cell death was demonstrated
